Experimental data: ChEMBL document CHEMBL5321200, “Discovery of the GSH responsive "Y-PROTACs" targeting ALK and CDK4/6 as a potential treatment for cancer” (Eur J Med Chem, 2023)
pEC50, pIC50: −log10 of the molar value. Activity calls are given as the source filed them. The rule behind the calls is not given here.

Tests used:
[1] = Toxicity in BALB/c nude mouse xenografted with human NCI-H3122 cells assessed as effect on kidney function at 75 mg/kg, IG administered once daily for 18 days by H and E staining based assay; assay type: organism-based; conditions: in vivo, po, 432 h, time 18 day
[2] = biological target: T1, Protein cereblon/ALK tyrosine kinase receptor/Echinoderm microtubule-associated protein-like 4 (Homo sapiens) (UniProt Q9UM73+Q9HC35+Q96SW2); experiment: PROTAC activity at CRBN/EML4-ALK in human NCI-H3122 cells assessed as downregulation of phosphorylated STAT3 level by Western blot analysis; assay type: cell-based
T1 sequence (Q96SW2 whole entry partner): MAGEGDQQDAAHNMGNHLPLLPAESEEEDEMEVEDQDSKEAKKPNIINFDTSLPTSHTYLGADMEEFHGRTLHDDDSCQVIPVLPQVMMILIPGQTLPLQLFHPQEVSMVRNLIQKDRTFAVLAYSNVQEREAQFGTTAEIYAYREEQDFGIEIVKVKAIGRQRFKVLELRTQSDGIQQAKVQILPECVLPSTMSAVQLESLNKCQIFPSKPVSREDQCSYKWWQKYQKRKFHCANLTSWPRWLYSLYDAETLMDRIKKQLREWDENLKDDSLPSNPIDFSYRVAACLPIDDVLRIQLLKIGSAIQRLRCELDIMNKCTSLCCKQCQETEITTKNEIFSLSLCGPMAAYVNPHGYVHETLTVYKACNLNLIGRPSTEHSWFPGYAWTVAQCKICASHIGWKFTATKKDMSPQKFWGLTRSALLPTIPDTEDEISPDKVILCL
T1 sequence (Q9HC35 whole entry partner): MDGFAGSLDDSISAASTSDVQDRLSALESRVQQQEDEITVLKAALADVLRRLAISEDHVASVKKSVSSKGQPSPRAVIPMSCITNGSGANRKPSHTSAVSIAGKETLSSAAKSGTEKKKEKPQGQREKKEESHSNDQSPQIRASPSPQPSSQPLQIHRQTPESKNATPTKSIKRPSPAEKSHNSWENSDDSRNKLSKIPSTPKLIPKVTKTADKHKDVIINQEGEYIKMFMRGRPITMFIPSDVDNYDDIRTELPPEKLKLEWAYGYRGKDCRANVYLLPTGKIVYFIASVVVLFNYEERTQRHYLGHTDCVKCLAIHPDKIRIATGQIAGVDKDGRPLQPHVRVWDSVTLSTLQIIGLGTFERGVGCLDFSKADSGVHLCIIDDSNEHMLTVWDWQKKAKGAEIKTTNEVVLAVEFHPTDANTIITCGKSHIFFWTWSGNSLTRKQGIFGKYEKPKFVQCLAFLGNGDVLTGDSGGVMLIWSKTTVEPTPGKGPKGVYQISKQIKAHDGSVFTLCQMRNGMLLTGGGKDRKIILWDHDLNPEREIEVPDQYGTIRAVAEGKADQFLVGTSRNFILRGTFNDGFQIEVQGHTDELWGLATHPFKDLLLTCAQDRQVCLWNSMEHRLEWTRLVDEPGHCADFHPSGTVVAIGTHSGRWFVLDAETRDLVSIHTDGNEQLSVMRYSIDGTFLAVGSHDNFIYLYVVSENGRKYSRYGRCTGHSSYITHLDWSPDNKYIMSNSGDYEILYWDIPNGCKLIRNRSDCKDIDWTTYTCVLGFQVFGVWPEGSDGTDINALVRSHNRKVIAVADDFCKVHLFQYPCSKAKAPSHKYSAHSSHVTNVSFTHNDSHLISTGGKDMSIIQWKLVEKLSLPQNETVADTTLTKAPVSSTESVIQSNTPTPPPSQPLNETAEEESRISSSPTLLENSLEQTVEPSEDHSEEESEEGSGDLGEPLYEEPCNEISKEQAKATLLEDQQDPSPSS
T1 sequence (Q9UM73 19-1620 limits assumed): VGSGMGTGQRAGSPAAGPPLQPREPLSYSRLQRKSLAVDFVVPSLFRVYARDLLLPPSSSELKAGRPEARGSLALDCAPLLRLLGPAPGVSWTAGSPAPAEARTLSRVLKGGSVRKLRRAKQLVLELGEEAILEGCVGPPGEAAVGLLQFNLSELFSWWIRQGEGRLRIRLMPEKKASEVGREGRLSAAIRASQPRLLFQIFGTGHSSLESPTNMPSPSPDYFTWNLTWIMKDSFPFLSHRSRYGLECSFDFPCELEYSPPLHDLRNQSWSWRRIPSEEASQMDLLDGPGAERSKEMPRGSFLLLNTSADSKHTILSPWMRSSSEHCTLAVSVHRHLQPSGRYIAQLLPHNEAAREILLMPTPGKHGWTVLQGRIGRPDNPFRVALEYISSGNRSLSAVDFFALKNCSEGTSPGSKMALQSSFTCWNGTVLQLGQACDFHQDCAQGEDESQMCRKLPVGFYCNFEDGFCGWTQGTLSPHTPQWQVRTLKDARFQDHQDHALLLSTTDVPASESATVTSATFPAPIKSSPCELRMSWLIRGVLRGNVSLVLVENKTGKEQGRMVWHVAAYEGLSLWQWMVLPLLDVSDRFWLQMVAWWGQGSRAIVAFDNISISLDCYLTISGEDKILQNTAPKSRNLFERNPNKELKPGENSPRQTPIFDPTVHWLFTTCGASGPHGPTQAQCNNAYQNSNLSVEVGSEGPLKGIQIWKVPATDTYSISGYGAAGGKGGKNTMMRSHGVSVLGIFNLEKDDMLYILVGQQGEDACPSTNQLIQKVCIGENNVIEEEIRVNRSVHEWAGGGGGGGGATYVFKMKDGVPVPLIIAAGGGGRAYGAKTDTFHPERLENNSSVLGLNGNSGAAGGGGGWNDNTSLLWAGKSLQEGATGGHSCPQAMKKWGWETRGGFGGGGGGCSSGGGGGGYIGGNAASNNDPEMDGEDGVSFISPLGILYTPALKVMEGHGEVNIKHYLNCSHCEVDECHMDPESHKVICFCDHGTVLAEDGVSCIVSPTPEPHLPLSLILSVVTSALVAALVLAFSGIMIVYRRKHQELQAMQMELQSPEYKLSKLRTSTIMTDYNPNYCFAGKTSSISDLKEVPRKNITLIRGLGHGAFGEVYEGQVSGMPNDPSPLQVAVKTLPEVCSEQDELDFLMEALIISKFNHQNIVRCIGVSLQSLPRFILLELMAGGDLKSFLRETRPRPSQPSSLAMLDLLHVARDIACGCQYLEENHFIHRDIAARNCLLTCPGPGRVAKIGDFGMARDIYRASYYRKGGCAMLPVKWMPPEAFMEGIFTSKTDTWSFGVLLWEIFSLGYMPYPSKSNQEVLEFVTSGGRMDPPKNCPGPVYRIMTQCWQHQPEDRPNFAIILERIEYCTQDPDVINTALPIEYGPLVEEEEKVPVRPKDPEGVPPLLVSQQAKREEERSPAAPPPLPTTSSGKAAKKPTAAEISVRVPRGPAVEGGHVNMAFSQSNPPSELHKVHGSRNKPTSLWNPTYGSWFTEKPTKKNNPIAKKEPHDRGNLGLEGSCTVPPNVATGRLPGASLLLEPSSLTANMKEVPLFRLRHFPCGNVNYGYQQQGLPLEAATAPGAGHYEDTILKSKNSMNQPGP

[3] = biological target: Cyclin-dependent kinase 4 (Homo sapiens) (UniProt P11802); experiment: Inhibition of CDK4 (unknown origin) at 1 uM by LANCE Ultra TR-FRET assay relative to control
Cyclin-dependent kinase 4 (Homo sapiens), sequence (P11802 whole entry): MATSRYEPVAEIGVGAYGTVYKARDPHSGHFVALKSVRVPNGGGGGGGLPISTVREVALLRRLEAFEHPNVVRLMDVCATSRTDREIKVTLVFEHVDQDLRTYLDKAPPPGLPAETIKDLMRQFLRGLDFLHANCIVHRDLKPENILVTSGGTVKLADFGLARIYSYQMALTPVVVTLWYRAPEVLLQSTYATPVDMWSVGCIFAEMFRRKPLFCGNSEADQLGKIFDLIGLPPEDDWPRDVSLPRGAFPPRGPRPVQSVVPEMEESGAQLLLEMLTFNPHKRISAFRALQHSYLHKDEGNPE

[4] = biological target: T1, Protein cereblon/ALK tyrosine kinase receptor/Echinoderm microtubule-associated protein-like 4 (Homo sapiens); experiment: PROTAC activity at CRBN/EML4-ALK in human L02 cells assessed as reduction in ALK protein level at 1 to 20 uM incubated for 24 hrs by Western blot analysis; assay type: cell-based; conditions: dose 1-20 µM
NCI-H3122 [5] = experiment: Cell cycle arrest in human NCI-H3122 cells assessed as G2/M phase cells at 1.25 uM incubated for 24 hrs by propidium iodide staining based flow cytometric analysis (reference value: 20.89%); assay type: functional
[6] = Stability of the compound in mouse plasma assessed as cleavage to metabolites measured after 4 hrs by LC-MS/MS analysis relative to control; assay type: ADME, cell-free
[7] = Stability of the compound in PBS buffer assessed as cleavage half life in presence of GSH by LC-MS/MS analysis; assay type: physicochemical; conditions: PBS buffer with GSH
NCI-H3122 [8] = experiment: Induction of apoptosis in human NCI-H3122 cells assessed as early apoptotic cells at 0.312 uM incubated for 48 hrs by Annexin V-FITC/propidium iodide staining based flow cytometric analysis (reference value: 0.71%); assay type: functional
[9] = biological target: T2, Protein cereblon/Cyclin-dependent kinase 4 (Homo sapiens, UniProt P11802+Q96SW2); experiment: PROTAC activity at CRBN/CDK4 in human NCI-H3122 cells assessed as reduction in CDK4 protein level at 5 uM incubated for 16 hrs followed by compound washout and measured after 8 hrs by Western blot analysis; assay type: cell-based
T2 sequence (P11802 2-303 limits assumed): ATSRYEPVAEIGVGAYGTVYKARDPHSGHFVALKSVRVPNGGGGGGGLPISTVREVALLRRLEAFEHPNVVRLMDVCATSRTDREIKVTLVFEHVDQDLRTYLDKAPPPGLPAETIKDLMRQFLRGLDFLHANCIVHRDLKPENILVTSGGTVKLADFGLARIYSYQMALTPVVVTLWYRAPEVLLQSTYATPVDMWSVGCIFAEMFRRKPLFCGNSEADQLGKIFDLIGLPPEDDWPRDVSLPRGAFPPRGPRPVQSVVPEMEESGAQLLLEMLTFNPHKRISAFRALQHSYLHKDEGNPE
T2 sequence (Q96SW2 whole entry partner): as the sequence (Q96SW2 whole entry partner) above

[10] = biological target: T2, Protein cereblon/Cyclin-dependent kinase 4; experiment: PROTAC activity at CRBN/CDK4 in human L02 cells assessed as reduction in CDK4 protein level at 1 to 20 uM incubated for 24 hrs by Western blot analysis; assay type: cell-based; conditions: dose 1-20 µM
[11] = Toxicity in BALB/c nude mouse xenografted with human NCI-H3122 cells assessed as effect on visceral liver morphology at 75 mg/kg, IG administered once daily for 18 days and measured after 12 hrs of last dose by H and E staining based analysis; assay type: organism-based; conditions: in vivo, po, 444 h
[12] = Toxicity in BALB/c nude mouse xenografted with human NCI-H3122 cells assessed as effect on visceral heart morphology at 75 mg/kg, IG administered once daily for 18 days and measured after 12 hrs of last dose by H and E staining based analysis; assay type: organism-based; conditions: in vivo, po, 444 h
[13] = Toxicity in BALB/c nude mouse xenografted with human NCI-H3122 cells assessed as tolerance at 25 to 75 mg/kg, IG administered once daily for 18 days; assay type: organism-based; conditions: in vivo, po, 432 h, dose 25-75 mg/kg, time 18 day
[14] = biological target: T2, Protein cereblon/Cyclin-dependent kinase 4; experiment: PROTAC activity at CRBN/CDK4 in human NCI-H3122 cells assessed as degradation of CDK4 protein at 5 uM pretreated with palbociclib for 4 hrs followed by compound addition and measured after 24 hrs by Western blot analysis; assay type: cell-based
NCI-H3122 [15] = experiment: Antiproliferative activity against human NCI-H3122 cells assessed as inhibition of cell growth pretreated with GSH followed by compound addition and incubated for 3 to 5 days by MTT assay; assay type: functional, cell-based
[16] = biological target: T2, Protein cereblon/Cyclin-dependent kinase 4; experiment: PROTAC activity at CRBN/CDK4 in human NCI-H3122 cells assessed as downregulation of phosphorylated Rb level by Western blot analysis; assay type: cell-based
NCI-H3122 [17] = experiment: Induction of apoptosis in human NCI-H3122 cells assessed as late apoptotic cells at 2.5 uM incubated for 48 hrs by Annexin V-FITC/propidium iodide staining based flow cytometric analysis (reference value: 3.06%); assay type: functional
NCI-H3122 [18] = experiment: Antitumor activity against human NCI-H3122 cells xenografted in BALB/c nude mouse assessed as tumor growth inhibition at 75 mg/kg, IG administered once daily for 18 days and measured after 12 hrs of last dose relative to control; assay type: functional; conditions: NCI-H3122, po, time 444 hrs, read-out: TGI
NCI-H3122 [19] = experiment: Cell cycle arrest in human NCI-H3122 cells assessed as accumulation of cells at S phase at 0.312 uM incubated for 24 hrs by propidium iodide staining based flow cytometric analysis (reference value: 29.94%); assay type: functional
NCI-H3122 [20] = experiment: Cell cycle arrest in human NCI-H3122 cells assessed as accumulation of cells at G0/G1 phase at 1.25 uM incubated for 24 hrs by propidium iodide staining based flow cytometric analysis (reference value: 48.68%); assay type: functional
Mus musculus = experiment: In vivo PROTAC activity at CRBN/EML4-ALK in BALB/c nude mouse xenografted with human NCI-H3122 cells assessed as reduction in EML4-ALK protein expression in tumor at 75 mg/kg, IG administered once daily for 18 days and measured after 12 hrs of last dose by immunohistochemical analysis; assay type: functional, organism-based; conditions: time 444.0 hrs
NCI-H3122 [21] = experiment: Cell cycle arrest in human NCI-H3122 cells assessed as accumulation of cells at S phase at 1.25 uM incubated for 24 hrs by propidium iodide staining based flow cytometric analysis (reference value: 29.94%); assay type: functional
[22] = biological target: Cyclin-dependent kinase 6 (Homo sapiens) (UniProt Q00534); experiment: Inhibition of CDK6 (unknown origin) at 1 uM by LANCE Ultra TR-FRET assay relative to control
Cyclin-dependent kinase 6 (Homo sapiens), sequence (Q00534 whole entry, the tested form may be a part): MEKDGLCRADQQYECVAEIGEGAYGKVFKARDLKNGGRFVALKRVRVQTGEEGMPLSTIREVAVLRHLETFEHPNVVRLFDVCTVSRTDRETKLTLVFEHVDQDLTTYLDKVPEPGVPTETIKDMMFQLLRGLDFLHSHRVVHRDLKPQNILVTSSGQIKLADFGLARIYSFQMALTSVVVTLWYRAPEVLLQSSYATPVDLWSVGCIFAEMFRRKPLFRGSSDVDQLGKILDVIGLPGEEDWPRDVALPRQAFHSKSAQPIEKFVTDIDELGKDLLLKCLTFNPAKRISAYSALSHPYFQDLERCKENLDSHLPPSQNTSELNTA

[23] = biological target: Protein cereblon/ALK tyrosine kinase receptor/Echinoderm microtubule-associated protein-like 4 (Homo sapiens, UniProt Q96SW2+Q9HC35+Q9UM73); experiment: PROTAC activity at CRBN/EML4-ALK in human NCI-H3122 cells assessed as reduction in EML4-ALK fusion protein level incubated for 24 hrs by Western blot analysis; assay type: cell-based
NCI-H3122 [24] = experiment: Induction of apoptosis in human NCI-H3122 cells assessed as early apoptotic cells at 1.25 uM incubated for 48 hrs by Annexin V-FITC/propidium iodide staining based flow cytometric analysis (reference value: 0.71%); assay type: functional
NCI-H3122 [25] = experiment: Induction of apoptosis in human NCI-H3122 cells assessed as late apoptotic cells at 0.625 uM incubated for 48 hrs by Annexin V-FITC/propidium iodide staining based flow cytometric analysis (reference value: 3.06%); assay type: functional
NCI-H2228 = experiment: Antiproliferative activity against human NCI-H2228 cells assessed as inhibition of cell growth pretreated with GSH followed by compound addition and incubated for 3 to 5 days by MTT assay; assay type: functional, cell-based
[26] = biological target: T2, Protein cereblon/Cyclin-dependent kinase 4; experiment: PROTAC activity at CRBN/CDK4 in human NCI-H3122 cells assessed as induction of CDK4 protein degradation at 10 uM incubated for 24 hrs by Western blot analysis relative to control; assay type: cell-based
[27] = biological target: T2, Protein cereblon/Cyclin-dependent kinase 4; experiment: PROTAC activity at CRBN/CDK4 in human NCI-H3122 cells assessed as induction of CDK4 degradation at 5 uM pretreated with MG132 for 4 hrs followed compound addition and measured after 24 hrs by Western blot analysis; assay type: cell-based

In the case of `CC(=O)c1c(C)c2cnc(Nc3ccc(N4CCN(CC(=O)NCCSSCCN(CC(=O)NCCNc5cccc6c5C(=O)N(C5CCC(=O)NC5=O)C6=O)C(=O)CCCCCCC(=O)N5CCC(c6cc(OC(C)C)c(Nc7ncc(Cl)c(Nc8ccccc8S(=O)(=O)C(C)C)n7)cc6C)CC5)CC4)cn3)nc2n(C2CCCC2)c1=O` (centres undefined), the Activity [1] was “Non-Toxic”, the Activity [2] was “Active” and the inhibition [3] was 80.2%. The Activity [4] was “Active”, the Activity (NCI-H3122 [5]) was 16.61% and the Drug degradation [6] was 30%. The half-life [7] was over 24 h, the Activity (NCI-H3122 [8]) was 1.92% and the Activity [9] was “inactive”. For the same molecule, the Activity [10] was “inactive”, the Activity [11] was “Non-Toxic” and the Activity [12] was “Non-Toxic”. For the same molecule, the Activity [13] was “Non-Toxic”, the Activity [14] was “inactive” and the pIC50 (NCI-H3122 [15]) was 7.05. For the same molecule, the Activity [16] was “Active”, the Activity (NCI-H3122 [17]) was 15.81% and the inhibition in vivo at 75 mg/kg (NCI-H3122 [18]) was 60.5%. For the same molecule, the Activity (NCI-H3122 [19]) was 17.52%, the Activity (NCI-H3122 [20]) was 72.25% and the Activity (Mus musculus) was “Active”. It also gave an Activity (NCI-H3122 [21]) of 10.58%, an inhibition [22] of 97.8% and a pEC50 [23] of 5.55. The Activity (NCI-H3122 [24]) was 1.03%, the Activity (NCI-H3122 [25]) was 8.32% and the pIC50 (NCI-H2228) was 5.75. For the same molecule, the Activity [26] was 70% and the Activity [27] was “inactive”.
